This note sets out measurements from patent US8835458B2 (Hanmi Science Co., Ltd, priority 2010, dated 2014).

Counter-ions that a name gives are not always drawn.

Data set [1] is described as follows: Toxicity to normal cells (SRB). It is filed as cell-based, human. As to conditions: human, Hs27 fibroblasts (normal cell line). The protocol:
(§1) MDA-MB-231 breast cancer cell lines (ATCC #HTB-26) and BxPC-3 pancreas cancer cell lines (ATCC #CRL 1687), which have been reported to express XIAP, were obtained from ATCC (American type culture collection; Rockville, Md.). MDA-MB-231 cell lines were incubated in L-15 medium supplemented with 10% FBS and 1% penicillin/streptomycin (Gibco BRL) at a T-75 cm^2 growth flask. In addition, BxPC-3 cell lines were incubated in RPMI medium supplemented with 10% FBS and 1% penicillin/streptomycin. For experiments of toxicity to normal cells, fibroblasts Hs27 (ATCC #CRL 1634) and Balb/c3t3 (ATCC #CCL 163) were used. The various cell lines were transferred into 96-well plates at a density of 3,000˜5,000 cells/100 μL, and cultured for 24 hours under conditions of 37° C., 5% CO2, 95% air, and 100% relative humidity (MDA-MB-231 cells were cultured under atmospheric conditions). The cells were treated with 10 μM˜0.1 nM of test compounds, and MDA-MB-231, BxPC-3, and normal cell lines were cultured for 120, 96, and 72 hours, respectively.
(§2) Cell viabilities of MDA-MB-231 cell lines were measured at an absorbance of 490 nm using CellTiter 96™ AQueous One Solution Cell proliferation Assay (MTS, Promega), and cell viabilities of BxPC-3 and normal cell lines were measured by fixing cells with 10% TCA (trichloroacetic acid), staining with SRB (sulforhodamine B), and measuring at 540 nm. From the values, GI50 values in which test compounds reduce the growth of cancer cells by 50% were calculated. The growth rates of cancer cells were calculated from following Equation 1 or 2. [(Ti−Tz)/(C−Tz)]×100 (for Ti>=Tz) [Equation 1] [(Ti−Tz)/Tz]×100 (for Ti<Tz) [Equation 2] In Equations 1 and 2, Tz refers to a density of untreated cells, which is an absorbance in 0% cell growth groups. C refers to a density of cells cultured by adding only medium, and Ti refers to a density of cells treated with test compounds.
(§3) GI50 value is the concentration of a test compound when the value of Equation 1 is 50, which indicates the concentration of test compound required to inhibit the cancer cells by 50%. On each measurement, test compounds were compared with a control.
(§4) The activity value of each compound (GI50 value) was shown in Table 5, and an IAP antagonist was used as a control.
(§5) In the activity measurement on MDA-MB-231 breast cancer cell lines, the values were represented as “***” for 100 nM or less, “**” for over 100 nM to below 1,000 nM, and “*” for 1,000 nM or more. In the measurement on normal cell lines, Balb/C and Hs27, the values were represented as “+++” for 10,000 nM or more, “++” for over 5,000 nM to below 10,000 nM, and “+” for 5,000 nM or less.

Data set [2] has as its system MDA-MB-231 breast cancer cell lines. The data set is described as follows: Evaluation of inhibition on cell growth (MTS). It is filed as cell-based. As to conditions: Homo sapiens, MDA-MB-231, 120 hours. The protocol:
as §1, §2, §3, §4, §5

In the case of `CN[C@@H](C)C(=O)N[C@H](C(=O)N1CCC[C@H]1C(=O)Nc1cc2c(Nc3ccc(Cn4ccnc4)cc3)ncnc2cc1OC)C(C)(C)C` [Example 111, (S)—N-(4-((4-((1H-imidazol-1-yl)methyl)phenyl)amino)-7-methoxyquinazolin-6-yl)-1-((S)-3,3-dimethyl-2-((S)-2-(methylamino)propanamido)butanoyl)pyrrolidine-2-carboxamide hydrochloride], in data set [1], the GI50 at 72 h is > 10000 nM. This molecule also gave a GI50 in data set [2] of 100 to 1000 nM.
On the same counts, the results for `CN[C@@H](C)C(=O)N[C@H](C(=O)N1CCC[C@H]1C(=O)Nc1cc2c(Nc3ccc(N4CCN(C5CCN(C)CC5)CC4)cc3)ncnc2cc1OC)C(C)(C)C` [Example 110, hydrochloride] are > 10000 nM and ≤ 100 nM.
On the same counts, the results for `CN[C@@H](C)C(=O)N[C@H](C(=O)N1CCC[C@H]1C(=O)Nc1cc2c(Nc3ccc(Cl)nc3)ncnc2cc1OC)C(C)(C)C` [Example 79, (S)—N-(4-((6-chloropyridin-3-yl)amino)-7-methoxyquinazolin-6-yl)-1-((S)-3,3-dimethyl-2-((S)-2-(methylamino)propanamido)butanoyl)pyrrolidine-2-carboxamide hydrochloride] are > 10000 nM and ≤ 100 nM.
On the same counts, the results for `C#CCOc1ccc(Nc2ncnc3cc(OC)c(NC(=O)[C@@H]4CCCN4C(=O)[C@@H](NC(=O)[C@H](C)NC)C(C)(C)C)cc23)cn1` [Example 84, (S)-1-((S)-3,3-dimethyl-2-((S)-2-(methylamino)propanamido)butanoyl)-N-(7-methoxy-4-((6-(prop-2-yn-1-yloxy)pyridin-3-yl)amino)quinazolin-6-yl)pyrrolidine-2-carboxamide hydrochloride] are > 10000 nM and 100 to 1000 nM.
For the molecule `CN[C@@H](C)C(=O)N[C@H](C(=O)N1CCC[C@H]1C(=O)Nc1cc2c(Nc3ccc(N4CCN(C)CC4)c(F)c3)ncnc2cc1OC)C(C)(C)C` [Example 112, (S)-1-((S)-3,3-dimethyl-2-((S)-2-(methylamino)propanamido)butanoyl)-N-(4-((3-fluoro-4-(4-methylpiperazin-1-yl)phenyl)amino)-7-methoxyquinazolin-6-yl)pyrrolidine-2-carboxamide], the GI50 at 72 h in data set [1] is > 10000 nM. The GI50 in data set [2] was ≤ 100 nM.
On the same counts, the results for `CN[C@@H](C)C(=O)N[C@H](C(=O)N1CCC[C@H]1C(=O)Nc1cc2c(Nc3ccc(N4CCN(C)CC4)c(Cl)c3)ncnc2cc1OC)C(C)(C)C` [Example 86, (S)—N-(4-((3-chloro-4-(4-methylpiperazin-1-yl)phenyl)amino)-7-methoxyquinazolin-6-yl)-1-((S)-3,3-dimethyl-2-((S)-2-(methylamino)propanamido)butanoyl)pyrrolidine-2-carboxamide hydrochloride] are > 10000 nM and ≤ 100 nM.
For `CN[C@@H](C)C(=O)N[C@H](C(=O)N1CCC[C@H]1C(=O)Nc1cc2c(Nc3ccc(N4CCCCC4)c(Cl)c3)ncnc2cc1OC)C(C)(C)C` [Example 96, (S)—N-(4-((3-chloro-4-(piperidin-1-yl)phenyl)amino)-7-methoxyquinazolin-6-yl)-1-((S)-3,3-dimethyl-2-((S)-2-(methylamino)propanamido)butanoyl)pyrrolidine-2-carboxamide hydrochloride], in that order: > 10000 nM and ≤ 100 nM.
For `CN[C@@H](C)C(=O)N[C@H](C(=O)N1CCC[C@H]1C(=O)Nc1cc2c(NC(=O)Nc3ccccc3F)ncnc2cc1OC)C(C)(C)C` [Example 89, (S)-1-((S)-3,3-dimethyl-2-((S)-2-(methylamino)propanamido)butanoyl)-N-(4-(3-(2-fluorophenyl)ureido)-7-methoxyquinazolin-6-yl)pyrrolidine-2-carboxamide hydrochloride], in that order: > 10000 nM and ≤ 100 nM.
Consider `CN[C@@H](C)C(=O)N[C@H](C(=O)N1CCC[C@H]1C(=O)Nc1cc2c(Nc3cccnc3Cl)ncnc2cc1OC)C(C)(C)C` [Example 78, (S)—N-(4-((2-chloropyridin-3-yl)amino)-7-methoxyquinazolin-6-yl)-1-((S)-3,3-dimethyl-2-((S)-2-(methylamino)propanamido)butanoyl)pyrrolidine-2-carboxamide hydrochloride], for which the GI50 at 72 h in data set [1] is > 10000 nM. For the same molecule, the GI50 in data set [2] is ≤ 100 nM.
Consider `CN[C@@H](C)C(=O)N[C@H](C(=O)N1CCC[C@H]1C(=O)Nc1cc2c(Nc3cc(Cl)c(OCc4ccccn4)c(Cl)c3)ncnc2cc1OC)C(C)(C)C` [Example 101, (S)—N-(4-((3,5-dichloro-4-(pyridin-2-ylmethoxy)phenyl)amino)-7-methoxyquinazolin-6-yl)-1-((S)-3,3-dimethyl-2-((S)-2-(methylamino)propanamido)butanoyl)pyrrolidine-2-carboxamide hydrochloride], for which the GI50 at 72 h in data set [1] was > 10000 nM. In data set [2], the GI50 is ≤ 100 nM.
On the same counts, the results for `CN[C@@H](C)C(=O)N[C@H](C(=O)N1CCC[C@H]1C(=O)Nc1cc2c(Nc3ccc(N4CCC(N5CCCCC5)CC4)cc3)ncnc2cc1OC)C(C)(C)C` [Example 103, (S)—N-(4-((4-([1,4′-bipiperidine]-1′-yl)phenyl)amino)-7-methoxyquinazolin-6-yl)-1-((S)-3,3-dimethyl-2-((S)-2-(methylamino)propanamido)butanoyl)pyrrolidine-2-carboxamide hydrochloride] are > 10000 nM and ≤ 100 nM.
On the same counts, the results for `CN[C@@H](C)C(=O)N[C@H](C(=O)N1CCC[C@H]1C(=O)Nc1cc2c(Nc3ccc(Br)cc3Cl)ncnc2cc1OC)C(C)(C)C` [Example 80, (S)—N-(4-((4-bromo-2-chlorophenyl)amino)-7-methoxyquinazolin-6-yl)-1-((S)-3,3-dimethyl-2-((S)-2-(methylamino)propanamido)butanoyl)pyrrolidine-2-carboxamide hydrochloride] are > 10000 nM and ≤ 100 nM.
In the case of `CCN(CC)c1ccc(Nc2ncnc3cc(OC)c(NC(=O)[C@@H]4CCCN4C(=O)[C@@H](NC(=O)[C@H](C)NC)C(C)(C)C)cc23)cc1Cl` [Example 99, (S)—N-(4-((3-chloro-4-(diethylamino)phenyl)amino)-7-methoxyquinazolin-6-yl)-1-((S)-3,3-dimethyl-2-((S)-2-(methylamino)propanamido)butanoyl)pyrrolidine-2-carboxamide hydrochloride], the GI50 at 72 h in data set [1] was > 10000 nM. Moreover, the 50% growth inhibitory concentration (GI50) in data set [2] was ≤ 100 nM.
On the same counts, the results for `CN[C@@H](C)C(=O)N[C@H](C(=O)N1CCC[C@H]1C(=O)Nc1cc2c(Nc3ccc(N4CCCC4)c(Cl)c3)ncnc2cc1OC)C(C)(C)C` [Example 113, (S)—N-(4-((3-chloro-4-(pyrrolidin-1-yl)phenyl)amino)-7-methoxyquinazolin-6-yl)-1-((S)-3,3-dimethyl-2-((S)-2-(methylamino)propanamido)butanoyl)pyrrolidine-2-carboxamide] are > 10000 nM and ≤ 100 nM.
Regarding `CN[C@@H](C)C(=O)N[C@H](C(=O)N1CCC[C@H]1C(=O)Nc1cc2c(Nc3ccc(Br)c(Cl)c3F)ncnc2cc1OC)C(C)(C)C` [Example 87, (S)—N-(4-((4-bromo-3-chloro-2-fluorophenyl)amino)-7-methoxyquinazolin-6-yl)-1-((S)-3,3-dimethyl-2-((S)-2-(methylamino)propanamido)butanoyl)pyrrolidine-2-carboxamide hydrochloride], in data set [1], the GI50 at 72 h was > 10000 nM. Also, the GI50 in data set [2] is ≤ 100 nM.
On the same counts, the results for `CN[C@@H](C)C(=O)N[C@H](C(=O)N1CCC[C@H]1C(=O)Nc1cc2c(Nc3ccc4c(=O)cc(C)oc4c3)ncnc2cc1OC)C(C)(C)C` [Example 93, (S)-1-((S)-3,3-dimethyl-2-((S)-2-(methylamino)propanamide)butanoyl)-N-(7-methoxy-4-((2-methyl-4-oxo-4H-chromen-7-yl)amino)quinazolin-6-yl)pyrrolidine-2-carboxamide hydrochloride] are > 10000 nM and ≤ 100 nM.
